# Test system: Lewis Lung Carcinoma cells
# Assay: Lewis Lung Carcinoma efficacy study
# Assay type: in vivo
# Conditions: single agent, dosed orally twice daily at 50, 100 or 200 mg/kg; female C57.Bl/6 mice implanted subcutaneously with Lewis Lung Carcinoma cells; relative to control
# Procedure: Female C57.Bl/6 mice (n=40) were implanted subcutaneously with 1×10^6 Lewis Lung Carcinoma cells suspended in PBS. The day following implantation, mice were randomized into 4 groups of n=10 mice to receive the following treatments dosed orally twice daily until study end: 1) Vehicle (water); 2) Compound 10 at 50 mg/kg formulated in water; 3) Compound 10 at 100 mg/kg formulated in water; or 4) Compound 10 at 200 mg/kg formulated in water. Tumors were measured three times per week with digital calipers and tumor volumes calculated with the following formula: tumor volume (mm^3)=(a×b^2/2) where ‘b’ is the smallest diameter and ‘a’ is the largest perpendicular diameter. ***P-value<0.001, ****P-value<0.0001 (Two-sided T-test).
structure (smiles),measurement,value
"C[C@H](N)C(=O)N1C[C@H](CCCB(O)O)[C@](N)(C(=O)O)C1 [Compound 10, (3R,4S)-3-amino-1-((S)-2-aminopropanoyl)-4-(3-boronopropyl)pyrrolidine-3-carboxylic acid]",tumor volume over time (tumor growth),slows tumor growth relative to control

# From patent US10844080B2, “Compositions and methods for inhibiting arginase activity” (CALITHERA BIOSCIENCES, INC., priority 2015, dated 2020)
